Reference: patent US20220053762A1, “HERBICIDAL COMPOSITIONS” (Bayer Aktiengesellschaft, priority 2018, published 2022)

System: harmful plant species
Test: Specific trial examples: binary compositions applied by the post-emergence method, synergistic effect according to Colby (Tables 3.1-3.2)
Assay type: in vivo
Method: When the observed efficacies already exceed the formal sum total of the values of the tests with individual applications, they also exceed the expected value according to Colby, which is calculated using the formula below and is likewise regarded as an indication of synergism (cf. S. R. Colby; in Weeds 15 (1967) p. 20 to 22):
Seeds or rhizome pieces of mono- and dicotyledonous weeds are placed in sandy loam in pots, covered with soil and grown in a greenhouse under good growth conditions (temperature, air humidity, water supply). Three weeks after sowing, the test plants are treated at the three-leaf stage with the compositions according to the invention. The compositions according to the invention formulated as spray powders or as emulsion concentrates are sprayed onto the green plant parts in various dosages with an application rate of 300 to 800 l/ha of water (equivalent).
The sum total of the effects of the individual applications is reported under E^A; Expected values according to Colby are each reported under E^C.
The rating period is reported in days after application (DAT).

SMILES: O=C(O)CNCP(=O)(O)O [(B7.5) Glyphosate]
- Herbicidal action 28 DAT against Digitaria sanguinalis (15 g a.i./ha): 10%
- Herbicidal action 14 DAT against Alopecurus myosuroides (50 g a.i./ha): 30%
- Herbicidal action 14 DAT against Centaurea cyanus (50 g a.i./ha): 50%
- Herbicidal action 14 DAT against Lamium purpureum L. (50 g a.i./ha): 50%
- Herbicidal action 14 DAT against Lolium rigidum (50 g a.i./ha): 10%
- Herbicidal action 14 DAT against Lolium rigidum (resistant biotype) (50 g a.i./ha): 10%
- Herbicidal action 14 DAT against Matricaria inodora (50 g a.i./ha): 40%
- Herbicidal action 14 DAT against Poa annua L. (50 g a.i./ha): 20%
- Herbicidal action 14 DAT against Viola tricolor (50 g a.i./ha): 50%
- Herbicidal action 28 DAT against Alopecurus myosuroides (50 g a.i./ha): 20%
- Herbicidal action 28 DAT against Alopecurus myosuroides (sensitive biotype) (50 g a.i./ha): 0%
- Herbicidal action 28 DAT against Amaranthus palmeri (res.) (50 g a.i./ha): 10%
- Herbicidal action 28 DAT against Brachiaria platyphylla (50 g a.i./ha): 80%
- Herbicidal action 28 DAT against Bromus sterilis (50 g a.i./ha): 0%
- Herbicidal action 28 DAT against Centaurea cyanus (50 g a.i./ha): 30%
- Herbicidal action 28 DAT against Digitaria sanguinalis (50 g a.i./ha): 65%
- Herbicidal action 28 DAT against Echinochloa crus-galli (50 g a.i./ha): 20%
- Herbicidal action 28 DAT against Eleusine indica (50 g a.i./ha): 40%
- Herbicidal action 28 DAT against Euphorbia heterophylla (50 g a.i./ha): 10%
- Herbicidal action 28 DAT against Galium aparine (50 g a.i./ha): 0%
- Herbicidal action 28 DAT against Hordeum murinum (50 g a.i./ha): 10%
- Herbicidal action 28 DAT against Ipomoea purpurea (50 g a.i./ha): 15%
- Herbicidal action 28 DAT against Kochia scoparia (50 g a.i./ha): 20%
- Herbicidal action 28 DAT against Lamium purpureum L. (50 g a.i./ha): 30%
- Herbicidal action 28 DAT against Matricaria inodora (50 g a.i./ha): 20%
- Herbicidal action 28 DAT against Pharbitis purpurea (50 g a.i./ha): 40%
- Herbicidal action 28 DAT against Polygonum convulvulus (50 g a.i./ha): 0%
- Herbicidal action 28 DAT against Raphanus raphanistrum (50 g a.i./ha): 0%
- Herbicidal action 28 DAT against Sorghum halepense (50 g a.i./ha): 30%
- Herbicidal action 14 DAT against Alopecurus myosuroides (150 g a.i./ha): 60%
- Herbicidal action 14 DAT against Bromus sterilis (150 g a.i./ha): 50%
- Herbicidal action 14 DAT against Lamium purpureum L. (150 g a.i./ha): 60%
- Herbicidal action 14 DAT against Lolium rigidum (resistant biotype) (150 g a.i./ha): 30%
- Herbicidal action 14 DAT against Matricaria inodora (150 g a.i./ha): 88%
- Herbicidal action 28 DAT against Alopecurus myosuroides (150 g a.i./ha): 30%
- Herbicidal action 28 DAT against Alopecurus myosuroides (resistant biotype) (150 g a.i./ha): 0%
- Herbicidal action 28 DAT against Alopecurus myosuroides (sensitive biotype) (150 g a.i./ha): 20%
- Herbicidal action 28 DAT against Amaranthus palmeri (res.) (150 g a.i./ha): 20%
- Herbicidal action 28 DAT against Avena fatua (150 g a.i./ha): 20%
- Herbicidal action 28 DAT against Bromus sterilis (150 g a.i./ha): 20%
- Herbicidal action 28 DAT against Centaurea cyanus (150 g a.i./ha): 70%
- Herbicidal action 28 DAT against Eleusine indica (150 g a.i./ha): 80%
- Herbicidal action 28 DAT against Euphorbia heterophylla (150 g a.i./ha): 35%
- Herbicidal action 28 DAT against Ipomoea purpurea (150 g a.i./ha): 50%
- Herbicidal action 28 DAT against Lamium purpureum (150 g a.i./ha): 60%
- Herbicidal action 28 DAT against Lamium purpureum L. (150 g a.i./ha): 50%
- Herbicidal action 28 DAT against Lolium rigidum (sensitive biotype) (150 g a.i./ha): 0%
- Herbicidal action 28 DAT against Matricaria inodora (150 g a.i./ha): 75%
- Herbicidal action 28 DAT against Polygonum convolvulus (150 g a.i./ha): 0%
- Herbicidal action 28 DAT against Polygonum convulvulus (150 g a.i./ha): 10%
- Herbicidal action 28 DAT against Veronica hederifolia (150 g a.i./ha): 85%
- Herbicidal action 28 DAT against Viola tricolor (150 g a.i./ha): 20%
- Herbicidal action 14 DAT against Lolium rigidum (resistant biotype) (450 g a.i./ha): 40%
- Herbicidal action 14 DAT against Viola tricolor (450 g a.i./ha): 60%
- Herbicidal action 28 DAT against Amaranthus palmeri (res.) (450 g a.i./ha): 35%
- Herbicidal action 28 DAT against Bromus sterilis (450 g a.i./ha): 60%
- Herbicidal action 28 DAT against Euphorbia heterophylla (450 g a.i./ha): 70%
- Herbicidal action 28 DAT against Galium aparine (450 g a.i./ha): 50%
- Herbicidal action 28 DAT against Ipomoea purpurea (450 g a.i./ha): 65%
- Herbicidal action 28 DAT against Lamium purpureum (450 g a.i./ha): 80%
- Herbicidal action 28 DAT against Lamium purpureum L. (450 g a.i./ha): 80%
- Herbicidal action 28 DAT against Lolium rigidum (450 g a.i./ha): 40%
- Herbicidal action 28 DAT against Lolium rigidum (sensitive biotype) (450 g a.i./ha): 50%
- Herbicidal action 28 DAT against Matricaria inodora (450 g a.i./ha): 80%
- Herbicidal action 28 DAT against Phalaris minor (450 g a.i./ha): 60%
- Herbicidal action 28 DAT against Polygonum convolvulus (450 g a.i./ha): 0%
- Herbicidal action 28 DAT against Polygonum convulvulus (450 g a.i./ha): 40%
- Herbicidal action 28 DAT against Raphanus raphanistrum (450 g a.i./ha): 30%
- Herbicidal action 28 DAT against Stellaria media (450 g a.i./ha): 85%
- Herbicidal action 28 DAT against Veronica hederifolia (450 g a.i./ha): 85%
- Herbicidal action 28 DAT [%] against Digitaria sanguinalis (post-emergence, single active compound (Glyphosate series), g a.i./ha: r765 50, r767 15): 45%
- Herbicidal action 28 DAT [%] against Sorghum halepense (post-emergence, single active compound (Glyphosate series), g a.i./ha: r775 50, r777 15, r778 1.67): 30%
- Herbicidal action 28 DAT [%] against Setaria viridis (post-emergence, single active compound (Glyphosate series), g a.i./ha: r786 450, r788 1.67): 95%
- Herbicidal action 28 DAT [%] against Abutilon theophrasti (post-emergence, single active compound (Glyphosate series), g a.i./ha: r796 450, r798 5): 85%

SMILES: CP(=O)(O)CCC(N)C(=O)O (stereo not drawn) [(B7.4) Glufosinate]
- Herbicidal action 28 DAT [%] against Eleusine indica (post-emergence, single active compound (A2 series), g a.i./ha: r337 150, r339 5): 50%
- Herbicidal action 28 DAT [%] against Kochia scoparia (post-emergence, single active compound (A2 series), g a.i./ha: r347 50, r349 5): 10%
- Herbicidal action 28 DAT [%] against Polygonum convulvulus (post-emergence, single active compound (A2 series), g a.i./ha: r357 50, r359 5): 30%
- Herbicidal action 28 DAT [%] against Kochia scoparia (post-emergence, single active compound (A3 series), g a.i./ha: r384 50, r386 45, r387 15, r388 5): 10%
- Herbicidal action in [%] 14 DAT against Galium aparine (post-emergence, single active compound (A4 series), g a.i./ha: r479 16, r480 4, r481 1, r482 150): 30%
- Herbicidal action in [%] 28 DAT against Galium aparine (post-emergence, single active compound (A4 series), g a.i./ha: r491 16, r492 50): 30%
- Herbicidal action in [%] 14 DAT against Lamium purpureum L. (post-emergence, single active compound (A4 series), g a.i./ha: r501 4, r502 1, r503 450): 80%
- Herbicidal action in [%] 28 DAT against Lamium purpureum L. (post-emergence, single active compound (A4 series), g a.i./ha: r512 4, r513 1, r514 450): 60%
- Herbicidal action in [%] 28 DAT against Lolium rigidum (resistant bio type) (post-emergence, single active compound (A4 series), g a.i./ha: r523 1, r524 450): 20%
- Herbicidal action in [%] 14 DAT against Poa annua L. (post-emergence, single active compound (A4 series), g a.i./ha: r533 16, r534 450): 40%
- Herbicidal action in [%] 28 DAT against Bromus sterilis (post-emergence, single active compound (A5 series), g a.i./ha: r617 4, r618 450): 10%
- Herbicidal action in [%] 14 DAT against Centaurea cyanus (post-emergence, single active compound (A5 series), g a.i./ha: r627 16, r628 1, r629 450, r630 150): 70%
- Herbicidal action in [%] 14 DAT against Galium aparine (post-emergence, single active compound (A5 series), g a.i./ha: r649 1, r650 150): 30%
- Herbicidal action in [%] 14 DAT against Lamium purpureum L. (post-emergence, single active compound (A5 series), g a.i./ha: r659 1, r660 450): 80%
- Herbicidal action in [%] 28 DAT against Lamium purpureum L. (post-emergence, single active compound (A5 series), g a.i./ha: r669 1, r670 450): 60%
- Herbicidal action 28 DAT [%] against Setaria faberi (post-emergence, single active compound, g a.i./ha: r40 50, r42 15, r43 5): 10%
- Herbicidal action 28 DAT [%] against Setaria viridis (post-emergence, single active compound, g a.i./ha: r51 50, r53 15, r54 5, r55 1.67): 10%
- Herbicidal action 28 DAT [%] against Abutilon theophrasti (post-emergence, single active compound, g a.i./ha: r77 450, r79 15, r80 5): 90%
- Herbicidal action 28 DAT [%] against Euphorbia heterophylla (post-emergence, single active compound, g a.i./ha: r88 150, r89 50, r90 45, r91 15, r92 5): 15%
- Herbicidal action 28 DAT [%] against Bromus sterilis (post-emergence, single active compound, g a.i./ha: r172 5, r173 1.67, r174 450): 30%
- Herbicidal action 28 DAT [%] against Galium aparine (post-emergence, single active compound, g a.i./ha: r183 5, r184 50): 0%
- Herbicidal action 28 DAT [%] against Lamium purpureum (post-emergence, single active compound, g a.i./ha: r204 45, r205 50): 50%
- Herbicidal action 28 DAT [%] against Lolium rigidum (sensitive biotype) (post-emergence, single active compound, g a.i./ha: r214 15, r215 150, r216 50): 0%
- Herbicidal action 28 DAT [%] against Lolium rigidum (resistant biotype) (post-emergence, single active compound, g a.i./ha: r224 15, r225 5, r226 150, r227 50): 0%
- Herbicidal action 28 DAT [%] against Veronica hederifolia (post-emergence, single active compound, g a.i./ha: r292 5, r293 150): 70%
- Herbicidal action 28 DAT [%] against Brachiaria platyphylla (post-emergence, single active compound, g a.i./ha: r314 50, r316 15, r317 5, r318 1.7): 30%
- Herbicidal action 28 DAT [%] against Pharbitis purpurea (post-emergence, single active compound, g a.i./ha: r396 50, r398 5): 40%
- Herbicidal action in [%] 28 DAT against Poa annua L. (post-emergence, single active compound, g a.i./ha: r721 16, r722 450): 30%
